The experiment relates to acetaminophen-induced liver disorder. The experiment can be described thus: Suppressive effect on acetaminophen-induced liver disorder in the rat (s-GOT, s-GPT). Format: in vivo. The settings on record: for inhibition at 102 mg/kg: Rattus norvegicus; for inhibition at 102 mg/kg / inhibition rate of s-GOT / inhibition rate of s-GPT: versus 5% gum arabic control; for s-GOT / s-GPT: male Wistar rats, blood 24 h later, mean ± S.E. (n=4-8). As for the experimental part:
Male Wistar rats with a body weight of about 180 g were fasted for 24 hours and orally administered, through a cannula for oral administration, 87-349 mg of oxidized-type glutathione isopropyl ester (hereinafter also referred to as "GSSG isopropyl"), which is one of the compounds of the present invention, 102 mg of reduced-type glutathione isopropyl ester 1/2 H2 SO4.1/2H2 O (87 mg as reduced type glutathione isopropyl ester (hereinafter also referred to as "GSH isopropyl")) or 5% gum arabic solution as a control, respectively. 1 hour later, 400 mg/kg of acetaminophen, a compound which may induce disorders in the liver, was intra peritoneally administered. 24 hours later, the rats were anesthetized with pentobarbital and the blood was collected from the abdominal aorta, and s-GOT and s-GPT were measured to compare the hepatic disorder suppressing effect of GSSG isopropyl with that of GSH isopropyl.

Where [1] appears, read: 102 mg/kg [0.25 mmol/kg] oral 1 h before acetaminophen 400 mg/kg i.p.
[2] abbreviates: 87 mg/kg [0.125 mmol/kg] oral 1 h before acetaminophen 400 mg/kg i.p.
[3] abbreviates: 174 mg/kg [0.25 mmol/kg] oral 1 h before acetaminophen 400 mg/kg i.p.
[4] abbreviates: 349 mg/kg [0.5 mmol/kg] oral 1 h before acetaminophen 400 mg/kg i.p.

Where two headings read alike, the source gives them in different places.

The inhibition is the change of the read-out against control, counted positive when it falls.

Take `CC(C)OC(=O)CNC(=O)[C@H](CS)NC(=O)CC[C@H](N)C(=O)O.O=S(=O)(O)O` [GSH isopropyl sulfate, γ-L-glutamyl-L-cysteinylglycine isopropyl ester sulfate, reference compound]: under “102 mg/kg oral, acetaminophen-treated rats”, the “elevation of s-GOT and s-GPT” value is given as “significantly suppresses”. For the same compound, the inhibition at 102 mg/kg (102 mg/kg oral, read-out: inhibition rate of s-GOT) was 94.5% and the inhibition at 102 mg/kg (102 mg/kg oral, read-out: inhibition rate of s-GPT) came out at 94.4%. Also, the s-GOT under setting [1] was found to be 475 ± 156 IU/1. This compound came in with a s-GPT under setting [1] of 253 ± 97 IU/1.

“γ-L-GLUTAMYL-L-CYSTEI[…] ESTER DISULFIDE [GSSG isopropyl]”: where the note is “87 mg/kg oral, acetaminophen-treated rats”, the “hepatic disorder suppressing effect compared with 102 mg/kg of GSH isopropyl sulfate” value is recorded as “almost equivalent”. Moreover, the “inhibition rate of s-GOT” value is 95.0 (87 mg/kg oral), 95.9 (174 mg/kg oral) and 98.6 (349 mg/kg oral). Besides, the “inhibition rate of s-GPT” value (87 mg/kg oral) turned out to be 94.9, the “inhibition rate of s-GPT” value (174 mg/kg oral) turned out to be 96.6 and the “inhibition rate of s-GPT” value (349 mg/kg oral) stood at 99.1. For the same compound, the “elevation of s-GOT and s-GPT” value (87-349 mg/kg oral, acetaminophen-treated rats) is “significantly suppressed dose-dependently”. The s-GOT was 430 ± 236 IU/1 under setting [2], 352 ± 104 IU/1 under setting [3] and 119 ± 11 IU/1 under setting [4]. For the same compound, the s-GPT by setting is: under setting [2], 231 ± 152 IU/1; under setting [3], 154 ± 46 IU/1; under setting [4], 39 ± 3 IU/1.

(Values after patent US5223488A, “Oxidized-type glutathione alkyl ester” (Senju Pharmaceutical Company, Ltd., priority 1990, dated 1993).)
